Counter-ions that a name gives are not always drawn. Like-named read-outs stand apart in the source and are kept apart here.
Key:
human 5-HT2C receptor = target: T1, human 5-HT2C receptor (Homo sapiens, UniProt P28335); assay: Stimulation of [3H] Inositol Monophosphate Production by 5HT2C Agonists in transfected CHO cells; conditions: read-out: 5HT2C Stimulation of IP3 % Emax (5HT, 100%)
T1 sequence (P28335 33-458): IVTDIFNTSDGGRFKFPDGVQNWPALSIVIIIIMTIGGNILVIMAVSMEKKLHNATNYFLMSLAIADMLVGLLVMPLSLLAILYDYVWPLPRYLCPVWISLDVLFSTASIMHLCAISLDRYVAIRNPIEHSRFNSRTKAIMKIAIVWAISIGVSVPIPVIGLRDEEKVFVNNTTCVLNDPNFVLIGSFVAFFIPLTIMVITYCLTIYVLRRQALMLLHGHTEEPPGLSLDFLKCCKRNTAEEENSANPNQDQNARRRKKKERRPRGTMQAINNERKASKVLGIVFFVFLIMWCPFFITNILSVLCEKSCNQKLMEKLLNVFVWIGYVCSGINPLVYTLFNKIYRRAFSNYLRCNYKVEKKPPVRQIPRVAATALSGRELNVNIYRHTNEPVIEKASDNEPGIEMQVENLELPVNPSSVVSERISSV
Protocol: One (1) ml of maintenance medium containing 1 μCi/ml myo-[^3H] inositol was added to each well. After 48 hours labeling, the cells were washed once with 0.5 ml DMEM containing 25 mM HEPES and 10 mM LiCl, then preincubated with the medium for 30 min (antagonists were included in this period if tested). At the end of the preincubation, the medium was removed, the cells were then incubated with test compounds (in presence of antagonists if needed) for 30 min. The reaction was terminated by removal of the incubation solution and addition of 0.5 ml ice-cold 5% PCA, followed by 15 to 30 min incubation on ice. 200 μl of 0.5 M Tes/1.5 M K2CO3 was added to each well to neutralize to pH 7, and plates were left on ice for another 15 to 30 min to precipitate all salts. The liquid and solid phases were separated by centrifugation.
A portion (350 μl) of the upper aqueous phase was applied to Dowex AG-1X8 (formate form, 100-200 mesh) columns. The columns were then washed stepwise with 10 ml of water and 10 ml of 25 mM ammonium formate to remove free myo-[^3H]inositol and deacylated phosphoinositol, respectively. Finally 10 ml of 0.2 M ammonium formate solution was applied to the columns to elute [^3H] inositol monophosphate ([^3H] IP1) directly into scintillation vials. Of this eluate, 1 ml was used to determine radioactivity by scintillation counting. […]

[1] = target: T2, human 5-hydroxytryptamine2C (h5HT2C) receptor (Homo sapiens, UniProt P28335); assay: 5HT2C Receptor Binding Test Procedure ([125I] DOI displacement, membranes of transfected CHO cells)
T2 construct: expressed in transfected cells; host or cells: CHO (Chinese Hamster Ovary) cells; membrane preparation
T2 sequence (P28335 33-458): T1 sequence (P28335 33-458)

Structure (SMILES): c1cc2c3c(c1)c1c(n3CCNC2)CCCCCC1 (as salt: hydrochloride) [Example 1, 1,2,3,4,8,9,10,11,12,13-Decahydrocycloocta[b][1,4]diazepino[6,7,1-hi]indole]
- melting point: 316 to 318 °C

Structure (SMILES): c1cc2c3c(c1)c1c(n3CCNC2)CCCCCC1 [Example 1, 1,2,3,4,8,9,10,11,12,13-Decahydrocycloocta[b][1,4]diazepino[6,7,1-hi]indole]
- Emax (human 5-HT2C receptor): 120%

Structure (SMILES): c1cc2c3c(c1)C1CCCCCCC1N3CCNC2 (stereo not drawn) [Example 2, 1,2,3,4,7b,8,9,10,11,12,13,13a-Dodecahydrocycloocta[b][1.4]diazepino[6,7,1-hi]indole]
- Ki [1]: 65 nM
- melting point: 58 to 63 °C

Structure (SMILES): CSc1ccc2c(c1)C(N1CCN(C)CC1)Cc1ccccc1S2 (stereo not drawn) [Methiothepin]
- Ki ([1]; reference compounds, [125I] DOI binding, h5HT2C CHO membranes, read-out: Ki value and 95% confidence interval): 4.6 nM

Structure (SMILES): COc1cc(CC(C)N)c(OC)cc1I (stereo not drawn) [[^125I] DOI]
- Kd ([1]; read-out: dissociation constant, KD of [125I] DOI at the human serotonin 5HT2C receptor, saturation binding with increasing concentrations of [125I] DOI): 0.4 nM
